From paper PMC7794844 (Molecules, 2020) come the findings set out here.

For one series, the target named is ACE2-S-RBD interaction (Severe acute respiratory syndrome coronavirus 2, UniProt P0DTC2). It counts as binding.
A further series concerns the target human ACE2 protein (Homo sapiens, UniProt Q9BYF1). Briefly: SPR affinity screen, compounds over immobilized ACE2-His (CM5 chip). It counts as binding.
For series [1], the system named is VSV pseudovirus in 293T-hACE2 cells. It counts as cell-based, vesicular stomatitis virus.
The target of series [2] is T1, SARS-CoV-2 spike S-RBD protein (Severe acute respiratory syndrome coronavirus 2, UniProt P0DTC2).
T1 construct: the S-RBD-mFc protein and ACE2-His protein were immobilized on a CM5 sensor chip; purchased Sino Biological (Beijing, China) 40592-V05H
Briefly: biochemical. Type of series: binding.

The target in another series is T2, S-RBD-His protein (Severe acute respiratory syndrome coronavirus 2, UniProt P0DTC2).
T2 construct: spike S-RBD protein with His tag (26.6 kDa)
Briefly: Isothermal titration calorimetry (ITC) of compound with S-RBD-His. Type of series: binding, SARS-CoV-2. To be noted: 25 °C, read-out: affinity measured by ITC.

Another series deals with 293T-hACE2 cells. Nature of the series: Cytotoxicity in 293T-hACE2 cells (PrestoBlue / CCK). As to the method:
(§1) First, cytotoxicity of 02B05 and 03D12 in 293T-hACE2 cells was assayed using PrestoBlue cell viability reagent. Briefly, the cells were seeded into 96-well plates and treated with different concentrations of compounds (a three-fold concentration series from 0.12 to 30 μM for 02B05 and 0.12 to 3.3 μM for 03D12). After incubation at 37 °C for 24 h, 10 μL PrestoBlue (10×) was added to each well and mixed well with the medium. After incubation at 37 °C for another 1 h, the fluorescent signals were read at an excitation wavelength of 560 nm and an emission wavelength of 590 nm, using the EnSpire multimode plate reader (Perkin Elmer, Waltham, MA, USA).

Assay in series [3]: as above
As to conditions: human, 293T-hACE2 cells. The protocol:
as §1

Series [4] concerns SARS-CoV-2 pseudovirus in 293T-hACE2 cells. Briefly: Pseudovirus entry assay (luciferase), SARS-CoV-2 pseudovirus. Type of series: cell-based.

Where two headings read alike, the source gives them in different places.

Chain of human ACE2 protein (Q9BYF1 18-740 limits assumed): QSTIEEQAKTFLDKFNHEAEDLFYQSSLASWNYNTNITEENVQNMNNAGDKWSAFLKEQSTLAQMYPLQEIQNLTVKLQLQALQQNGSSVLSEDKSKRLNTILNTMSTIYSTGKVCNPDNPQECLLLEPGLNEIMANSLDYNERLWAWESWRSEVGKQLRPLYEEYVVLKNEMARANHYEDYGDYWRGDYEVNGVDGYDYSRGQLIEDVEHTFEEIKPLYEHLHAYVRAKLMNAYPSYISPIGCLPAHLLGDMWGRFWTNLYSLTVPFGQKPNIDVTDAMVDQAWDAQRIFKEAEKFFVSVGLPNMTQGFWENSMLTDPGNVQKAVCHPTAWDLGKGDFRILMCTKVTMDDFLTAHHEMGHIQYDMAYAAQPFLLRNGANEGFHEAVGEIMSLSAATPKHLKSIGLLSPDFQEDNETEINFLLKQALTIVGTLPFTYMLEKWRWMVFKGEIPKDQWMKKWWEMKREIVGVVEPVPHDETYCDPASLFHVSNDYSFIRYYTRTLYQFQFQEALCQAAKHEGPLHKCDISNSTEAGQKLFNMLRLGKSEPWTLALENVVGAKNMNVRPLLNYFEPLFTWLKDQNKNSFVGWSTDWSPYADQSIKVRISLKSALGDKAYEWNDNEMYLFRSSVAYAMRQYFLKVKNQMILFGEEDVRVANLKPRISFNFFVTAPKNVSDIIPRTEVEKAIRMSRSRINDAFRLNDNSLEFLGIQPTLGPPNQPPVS

By koff is commonly meant the first-order rate constant of dissociation. Usually kon stands for the rate constant with which the complex forms. A word on the CC50: it is the concentration at which the toxic effect on the cells reaches its halfway point. Higher therefore signals lower toxicity to the cells. What is called inhibition is the change of the read-out against control, counted positive when it falls. Consider `C[C@@]1(C(=O)O)CC[C@]2(C)CC[C@]3(C)C4=CC(=O)c5c(cc(O)c(O)c5C=O)[C@]4(C)CC[C@@]3(C)[C@@H]2C1` [02B05, demethylzeylasteral], for which the “blocking effect on binding of S-RBD to ACE2 (competitive inhibition)” value on ACE2-S-RBD interaction is given as “strongest blocking effect”. At human ACE2 protein, this compound gave a Kd of 1.74 µM, a koff of 0.00335 s⁻¹ and a kon of 1990 M⁻¹ s⁻¹. Besides, the “effect on the transduction of VSV pseudovirus” value in series [1] is “no effect”. In series [2], this compound yielded a Kd of 1.04 µM, a koff of 0.00244 s⁻¹ and a kon of 2350 M⁻¹ s⁻¹. Further, at S-RBD-His protein, the Kd stood at 2.09 µM. Moreover, the “cell viability and cell morphology” value with 293T-hACE2 cells (at 0.37 μM) is “no changes were observed”. In addition, the cell morphology result in the series on 293T-hACE2 cells (at 1.1 μM) is given as “affected”. Further, the “effect on the activity (viability) of 293T-hACE2 cells” value in the series on 293T-hACE2 cells (concentration no more than 1.1 μM, CCK and PrestoBlue) is listed as “no significant effect”. The compound also showed a CC50 at 24 h in series [3] of 7.67 ± 0.79 µM. Also, the inhibition at 0.37 µM in series [4] (Severe acute respiratory syndrome-related coronavirus, 0.37 μM, 293T-hACE2 cells, 24 h post infection, read-out: inhibition of transduction of SARS-CoV-2 pseudovirus) was around 7%.

In the case of `C=CC(=O)Nc1cc(Nc2nccc(-c3c[nH]c4ccccc34)n2)c(OC)cc1N(C)CCN(C)C` [02C15], in series [2], the Kd was determined as 9.11 µM, the koff turned out to be 0.0215 s⁻¹ and the kon was 2360 M⁻¹ s⁻¹.

In the case of `CC(C)c1cc(C(C)C)c(CC(=O)NS(=O)(=O)Oc2ccccc2)c(C(C)C)c1` [02C19], the koff on human ACE2 protein (read-out: koff) was found to be 0.052 s⁻¹. Besides, the kon on human ACE2 protein (read-out: kon) was determined as 2340 M⁻¹ s⁻¹. For the same compound, the Kd at human ACE2 protein (target ACE2, SPR, 1:1 binding model for kinetics) was 22.2 µM.

`Nc1nc(Nc2ccc3c(c2)CC[C@@H](N2CCCC2)CC3)nn1-c1cc2c(nn1)-c1ccccc1CCC2` [02J06]: the results for the Kd (at human ACE2 protein; in series [2]) were 243 µM and 64.2 µM, respectively. The koff was 0.636 s⁻¹ at human ACE2 protein (read-out: koff) and 0.329 s⁻¹ in series [2]. Further, the results for the kon (on human ACE2 protein (read-out: kon); in series [2]) were 2610 M⁻¹ s⁻¹ and 5120 M⁻¹ s⁻¹, respectively.

Consider `COc1cc2c(Oc3ccc4[nH]c(C)cc4c3F)ncnc2cc1OCCCN1CCCC1` [03D12], for which the “blocking effect on binding of S-RBD to ACE2 (competitive inhibition)” value at ACE2-S-RBD interaction is recorded as “effective in blocking ACE2-S-RBD interaction”. Further, the Kd at human ACE2 protein is 3.43 µM; in series [2], 4.59 µM. For the same compound, the koff is 0.00948 s⁻¹ at human ACE2 protein (read-out: koff) and 0.00964 s⁻¹ in series [2]. Besides, the figures for the kon (on human ACE2 protein (read-out: kon); in series [2]) were 2760 M⁻¹ s⁻¹ and 2100 M⁻¹ s⁻¹, respectively. In addition, the cytotoxicity entry in the series on 293T-hACE2 cells (concentration as high as 3.3 μM) was “not obvious”. In addition, the results for the “inhibitory activity in pseudovirus entry assay” value in series [4] (any concentration tested (0.12 to 3.3 μM)) and in series [4] (at 3.3 μM) were “did not exhibit significant inhibitory activity” and “no obvious”, respectively.

In the case of `Cl.N` [ammonium chloride, reference compound], the “infection by VSV pseudovirus” value in series [1] is listed as “almost abolished”. The “infection by SARS-CoV-2 pseudovirus” value in series [4] (positive control, 20 mM, 293T-hACE2 cells) is on record as “almost abolished”.
